≈ marks a conversion by molar mass, not a printed value.
Tests used:
Mtb H37Rv = test: MIC against Mtb H37Rv, Alamar Blue broth microdilution; format: cell-based, Mycobacterium tuberculosis; conditions: for MIC: Mycobacterium tuberculosis, H37RV
Rv3247c hypomorph = test: MIC against thymidylate kinase hypomorph; format: cell-based, Mycobacterium tuberculosis
Excerpt: Based on the structural similarity of the compounds with the published thymidylate kinase inhibitors,[39],[40] we asked whether this compound series can inhibit Mtb thymidylate kinase, which is an essential target encoded by Rv3247c. To investigate this, we tested the activity of the compounds 1, 2, and 12 against the Rv3247c hypomorph.

SAWC3906 = format: cell-based; conditions: atypic Beijing
SAWC4046 = format: cell-based; conditions: Haarlem-like
SAWC3933 = format: cell-based; conditions: T1
WT H37Rv = test: microbe, parasite or virus in culture; format: cell-based, M. tuberculosis; conditions: Mycobacterium tuberculosis
SAWC2371 = test: microbe, parasite or virus in culture; format: cell-based; conditions: Mycobacterium tuberculosis, 336 h; Haarlem; day 14
SAWC3200 = test: microbe, parasite or virus in culture; format: cell-based; conditions: Mycobacterium tuberculosis, 336 h; X1; day 14
SAWC3385 = format: cell-based; conditions: Cas 1/Delhi
mmpL3-TetON = test: microbe, parasite or virus in culture; format: cell-based, M. tuberculosis; conditions: for MIC / MIC50: Mycobacterium tuberculosis
SAWC1125 = test: microbe, parasite or virus in culture; format: cell-based; conditions: Mycobacterium tuberculosis, 336 h; typical Beijing; day 14
[1] = tested on: panel of 21 liability targets; conditions: 10 μM test concentration
H37Rv = test: microbe, parasite or virus in culture; format: cell-based; conditions: Mycobacterium tuberculosis, 336 h, 7H9 medium, day 14
SAWC3388 = format: cell-based; conditions: T1, Tuscany, T5/Rus
in vivo = conditions: male, C57/BL6, mouse
[2] = Mouse pharmacokinetics, i.v. and oral; conditions: for tolerability: mouse, i.v. 2 mg/kg or oral 20 mg/kg
[3] = Kinetic aqueous solubility at pH 7.4; format: physicochemical; conditions: phosphate buffered saline, pH 7.4, aqueous (kinetic) solubility at pH 7.4; read-out: Solubility
Method: 3) In vitro ADME - assays
The kinetic solubility assay was p erfo rmed using a miniaturised shake flask method. 10 mM stock solutions of each of the test compounds were used to prepare calibration standards (10-220 µM) in DMSO. The same 10 mM stock soluti ons were accurately dispensed in duplicat e into 96-well plates and the DMSO dried down (MiVac GeneVac, 90 min, 37 °C). Thereafter, the samples were reconstituted (200 µM) in phosphate buffered saline (pH 7. 4) and shaken (20 hours,25 °C). The solutions were centrifuged, and the supernatant was an alysed by means of HPLC-DAD (Agilent 1200 Rapid Resolution HPLC with a diode array detector). Best fit calibration curves were constructed using the calibration standards, which were used to determine the aqueous samples’ solubility.4
The metabolic stability assay was performed in dup licate in a 96-well micro t itre plate. The test compounds (0.1 µM) were incubated individually in mouse, rat and pooled human liver microsomes (final protei n concentration of 0.4 m g/mL; XenoTech, Lenexa, KS), suspended in 0.1M phosphate buffer (pH 7.4) for predetermined time points, in the presence and abs ence of the cofactor NADPH (1 mM). Reactions were quenched by adding 300 µL of ice cold acetonitrile containing internal standard (carbamazepine, 0.0236 µg/mL). The samples were centrifuged and test in the supernatant were an alysed by means of LC-MS/MS ((Agilent Rapid Resolution HPLC, AB SCIEX 4500 MS). The rel ative loss of parent compound over time w as monitored and plots (concentration vs. time) were prepared per compound to determine the first order rate constant for compound depletion. This was in turn used to calculate h alf-life, in vitro intrinsic clearance and in vivo hepatic extraction ratio. Metabolite search es were not conducted during the met abolic stability assay.5

Mtb [4] = test: Checkerboard (2D) MIC assay with Fe2+ in GAST media; format: cell-based, Mycobacterium tuberculosis; conditions: GAST medium, 100/200 μM Fe2+
Mtb [5] = test: microbe, parasite or virus in culture; format: cell-based, Mycobacterium tuberculosis
[6] = mouse blood samples from the PK studies
[7] = antitubercular activity of the initial hits, medium not stated
[8] = supplement csv, medium not stated
[9] = male, C57/BL6, mouse, whole blood, iv, 2 mg/kg
[10] = male, C57/BL6, mouse, whole blood, oral, 20 mg/kg
[11] = male, C57/BL6, mouse, whole blood, po, 20 mg/kg

SMILES | MIC modulation upon silencing of Rv3247c (Rv3247c hypomorph) | MIC99 day 14, SAWC3906 (SAWC3906) | MIC99 day 14, SAWC4046 (SAWC4046) | MIC99 day 14, SAWC3933 (SAWC3933) | MIC50 (WT H37Rv; experiment: Follow-Up) | MIC50 (WT H37Rv; experiment: Initial) | MIC99 (SAWC2371) | MIC99 (SAWC3200) | MIC99 day 14, SAWC3385 (SAWC3385) | change in MIC on transcriptional silencing of mmpL3 (mmpL3-TetON) | MIC (mmpL3-TetON; experiment: Follow-Up) | MIC50 (mmpL3-TetON; experiment: Follow-Up) | MIC (mmpL3-TetON; experiment: Initial) | MIC50 (mmpL3-TetON; experiment: Initial) | MIC99 (SAWC1125) | MIC99 (H37Rv) | MIC99 day 14, SAWC3388 (SAWC3388) | tolerability [2] | further results
Cc1cc(C)n(-c2nc(O)cc(-c3ccccc3)n2)n1 [Compound 1, 2-(3,5-Dimethyl-1H-pyrazol-1-yl)-6-phenylpyrimidin-4(3H)-one] | did not observe any MIC modulation | 0.25 µM (≈ 0.0666 µg/mL) | 0.25 to 0.5 µM | 2 to 4 µM | 0.49 µM (≈ 0.13 µg/mL) | 0.26 µM (≈ 0.0692 µg/mL) | 0.25 to 0.5 µM (≈ 0.0666 to 0.133 µg/mL) | 0.25 µM (≈ 0.0666 µg/mL) | 0.25 to 0.5 µM | no significant change | 0.57 µM (≈ 0.152 µg/mL) | 0.42 µM (≈ 0.112 µg/mL) | 0.7 µM (≈ 0.186 µg/mL) | 0.29 µM (≈ 0.0772 µg/mL) | 8 µM (≈ 2.13 µg/mL) | 1 to 2 µM (≈ 0.266 to 0.533 µg/mL) | 0.25 to 0.5 µM |  | MIC (Mtb H37Rv; [7]): < 2 µM; MIC (Mtb H37Rv; [8]): 1 µM (≈ 0.266 µg/mL); MIC (WT H37Rv; experiment: Follow-Up): 0.78 µM (≈ 0.208 µg/mL); inhibition or activation of the enzyme/receptors [1]: no significant inhibition or activation
Cc1ccc(Nc2cc(C)nn2-c2nc(C)cc(O)n2)cc1 [Compound 2, 6-Methyl-2-(3-methyl-5-(p-tolylamino)-1H-pyrazol-1-yl)pyrimidin-4(3H)-one] | did not observe any MIC modulation |  |  |  |  |  |  |  |  | no significant change |  |  |  |  |  |  |  |  | MIC (Mtb H37Rv; [7]): < 2 µM
Cc1cc(C)n(-c2nc(C(F)(F)F)cc(=O)[nH]2)n1 [Compound 12, 2-(3,5-Dimethyl-1H-pyrazol-1-yl)-6-(trifluoromethyl)pyrimidin-4(3H)-one] | did not observe any MIC modulation | 2 µM (≈ 0.516 µg/mL) | 1 µM (≈ 0.258 µg/mL) |  | 8.3 µM (≈ 2.14 µg/mL) | 4.5 µM (≈ 1.16 µg/mL) | 2 µM (≈ 0.516 µg/mL) | 1 µM (≈ 0.258 µg/mL) | 1 µM (≈ 0.258 µg/mL) | no significant change |  | 8.9 µM (≈ 2.3 µg/mL) | 6.2 µM (≈ 1.6 µg/mL) | 4.8 µM (≈ 1.24 µg/mL) | 8 to 16 µM (≈ 2.07 to 4.13 µg/mL) | 2 µM (≈ 0.516 µg/mL) | 2 to 4 µM | well tolerated | loss in activity (Mtb H37Rv; CH3 or CF3 at R1 instead of phenyl): 10–15 fold; half-life at 24 h (in vivo; iv, 2 mg/kg): 3.1 h; half-life at 24 h (in vivo; po, 20 mg/kg): 4 h; MIC (WT H37Rv; experiment: Initial): 5.4 µM (≈ 1.39 µg/mL); AUC(0-inf) at 24 h [2, 9]: 48.8 µM·h; clearance at 24 h [2, 9]: 2.7 mL/min/kg; bioavailability [2, 10]: ~40%; solubility at 20 h [3]: ≥ 200 µM; inhibition or activation of the enzyme/receptors [1]: no significant inhibition or activation
CC(=O)Nc1cc(C)nn1-c1nc(-c2ccccc2)cc(=O)[nH]1 [Compound 15, N-(3-Methyl-1-(4-oxo-6-phenyl-1,4-dihydropyrimidin-2-yl)-1H-pyrazol-5-yl)acetamide] |  | 2 µM (≈ 0.619 µg/mL) |  | 8 µM (≈ 2.47 µg/mL) |  |  |  | 1 µM (≈ 0.309 µg/mL) | 2 µM (≈ 0.619 µg/mL) | no significant change |  |  |  |  | 8 to 16 µM (≈ 2.47 to 4.95 µg/mL) | 4 to 8 µM (≈ 1.24 to 2.47 µg/mL) |  |  | 
Cc1cc(C)n(-c2nc(-c3ccncc3)cc(=O)[nH]2)n1 [Compound 20, 2-(3,5-Dimethyl-1H-pyrazol-1-yl)-6-(pyridin-4-yl)pyrimidin-4(3H)-one] |  | 2 µM (≈ 0.535 µg/mL) | 2 to 4 µM | 16 µM (≈ 4.28 µg/mL) |  |  | 2 to 4 µM (≈ 0.535 to 1.07 µg/mL) | 1 to 2 µM (≈ 0.267 to 0.535 µg/mL) | 2 to 4 µM |  |  |  |  |  | 32 µM (≈ 8.55 µg/mL) | 4 to 8 µM (≈ 1.07 to 2.14 µg/mL) | 4 to 8 µM |  | 
Cc1cc(Nc2ccc(F)cc2)n(-c2nc(C(F)(F)F)cc(=O)[nH]2)n1 [Compound 40, 2-(5-((4-Fluorophenyl)amino)-3-methyl-1H-pyrazol-1-yl)-6-(trifluoromethyl)pyrimidin-4(3H)-one] |  |  |  |  | 0.4 µM (≈ 0.141 µg/mL) | 0.3 µM (≈ 0.106 µg/mL) |  |  |  | no significant change | 0.56 µM (≈ 0.198 µg/mL) | 0.36 µM (≈ 0.127 µg/mL) | 0.34 µM (≈ 0.12 µg/mL) | 0.18 µM (≈ 0.0636 µg/mL) |  |  |  | well tolerated | half-life (in vivo; iv, 2 mg/kg): 4 h; half-life (in vivo; po, 20 mg/kg): 6.1 h; MIC (WT H37Rv; experiment: Follow-Up): 0.51 µM (≈ 0.18 µg/mL); MIC (WT H37Rv; experiment: Initial): 0.54 µM (≈ 0.191 µg/mL); AUC(0-inf) [2, 9]: 256 µM·h; CLint scaled [2, 9]: 34 mL/min/kg; Cmax [2, 9]: 33.1 µM; Vd [2, 9]: 0.1 L/kg; clearance [2, 9]: 0.4 mL/min/kg; bioavailability [2, 10]: ~40%; AUC(0-inf) [2, 11]: 1090 µM·h; Cmax [2, 11]: 104 µM; bioavailability [2, 11]: 44%
Cc1cc(Nc2ccccn2)n(-c2nc(C(F)(F)F)cc(=O)[nH]2)n1 [Compound 45, 2-(3-Methyl-5-(pyridin-2-ylamino)-1H-pyrazol-1-yl)-6-(trifluoromethyl)pyrimidin-4(3H)-one] |  |  |  |  |  |  |  |  |  |  |  |  |  |  |  |  |  |  | MIC (Mtb H37Rv; 168 h): ≤ 1 µM; increase in MIC (Mtb [4]): ≥ 32 fold; Fold-change of MIC (Mtb [5]; 200 µM Ferric ammonium citrate): 2-4 fold; MIC (Mtb [5]; Mycobacterium tuberculosis, […], supplement: None): 0.39 µM (≈ 0.131 µg/mL)
CCNc1cc(C)nn1-c1nc(-c2cccnc2)cc(=O)[nH]1 [Compound 47, 2-(5-(Ethylamino)-3-methyl-1H-pyrazol-1-yl)-6-(pyridin-3-yl)pyrimidin-4(3H)-one] |  |  |  |  | 3.5 µM (≈ 1.04 µg/mL) | 2.5 µM (≈ 0.741 µg/mL) |  |  |  | no significant change | 4.4 µM (≈ 1.3 µg/mL) | 3.2 µM (≈ 0.948 µg/mL) | 2.4 µM (≈ 0.711 µg/mL) | 2.1 µM (≈ 0.622 µg/mL) |  |  |  | well tolerated | major metabolite [6]: glucuronide; MIC (Mtb H37Rv; [8]): 6 µM (≈ 1.78 µg/mL); half-life (in vivo; iv, 2 mg/kg): 5.6 h; half-life (in vivo; po, 20 mg/kg): 4.4 h; AUC(0-inf) [2, 9]: 1.52 µM·h; CLint scaled [2, 9]: > 4000 mL/min/kg; Cmax [2, 9]: 2.4 µM; Vd [2, 9]: 37.4 L/kg; AUC(0-inf) [2, 11]: 5.22 µM·h; Cmax [2, 11]: 2.9 µM; Tmax [2, 11]: 0.5 h; bioavailability [2, 11]: 33%
